Experimental data: ChEMBL document CHEMBL4311969, “Polygala tenuifolia-Acori tatarinowii herbal pair as an inspiration for substituted cinnamic α-asaronol esters: Design, synthesis, anticonvulsant activity, and inhibition of lactate dehydrogenase study” (Eur J Med Chem, 2019)
Several values for one entry are separate records, joined by “and”; a condition that tells them apart may be missing. Identical values can stand only once. Activity calls are given as the source filed them. The rule behind the calls is not given here.

What was measured:
Homo sapiens [1] = species on record: Homo sapiens; test: Inhibition of human LDH5 at 0.5 mM using sodium pyruvate as substrate by UV-VIS spectrophotometry method relative to control
Mus musculus [2] = test: Anticonvulsant activity in Kunming mouse assessed as MES-induced hind limb extension at 100 mg/kg, ip administered 0. 5 to 4 hrs before MES stimulation relative to control; type: functional
[3] = Neurotoxicity against Kunming mouse assessed as time remained in rod at 100 mg/kg, ip administered 0.5 to 2 hrs by rotarod test; type: toxicity, organism-based; conditions: in vivo
Homo sapiens [4] = species on record: Homo sapiens; test: Inhibition of human LDH1 at 0.5 mM using sodium pyruvate as substrate by UV-VIS spectrophotometry method relative to control
Mus musculus [5] = test: Anticonvulsant activity in Kunming mouse assessed as MES-induced hind limb extension at 100 mg/kg, ip administered 0. 5 to 2 hrs before MES stimulation; type: functional, organism-based
Mus musculus [6] = test: Anticonvulsant activity in Kunming mouse assessed as MES-induced hind limb extension at 100 mg/kg, ip administered 3 hrs before MES stimulation; type: functional, organism-based
Mus musculus [7] = test: […] activity in ip dosed Kunming mouse assessed as reduction in formalin-induced paw licking administered 0.5 hrs before formalin stimulation; type: functional
[8] = Neurotoxicity against ip dosed Kunming mouse assessed as time remained in rod measured at 0.5 hrs by rotarod test; type: toxicity, organism-based; conditions: in vivo
[9] = Protective index, ratio of TD50 for neurotoxicity against ip dosed Kunming mouse assessed as time remained in rod measured at 0.5 hrs by rotarod test to ED50 for anticonvulsant activity in ip dosed Kunming mouse assessed as reduction in ScPTZ-induced seizure administered 0.5 hrs before ScPTZ stimulation; type: toxicity, organism-based; conditions: in vivo, read-out: PI
Mus musculus [10] = test: Anticonvulsant activity in ip dosed Kunming mouse assessed as reduction in ScPTZ-induced seizure administered 0.5 hrs before ScPTZ stimulation; type: functional
[11] = Protective index, ratio of TD50 for neurotoxicity against ip dosed Kunming mouse assessed as time remained in rod measured at 0.5 hrs by rotarod test to ED50 for […] activity in ip dosed Kunming mouse assessed as reduction in formalin-induced paw licking administered 0.5 hrs before formalin stimulation; type: toxicity, organism-based; conditions: in vivo, read-out: PI
Mus musculus [12] = test: Anticonvulsant activity in ip dosed Kunming mouse assessed as MES-induced hind limb extension administered 0.5 hrs before MES stimulation; type: functional
Mus musculus [13] = test: Anticonvulsant activity in Kunming mouse assessed as reduction in Sc3-MP-induced tonic seizure rate at 300 mg/kg, ip administered 0.5 hrs before Sc3-MP stimulation relative to control; type: functional; parameters: scale not given: the % may be the effect or the level left
Mus musculus [14] = test: Anticonvulsant activity in Kunming mouse assessed as reduction in ScPTZ-induced seizure at 300 mg/kg, ip administered 0.25 to 2 hrs before ScPTZ stimulation relative to control; type: functional; parameters: scale not given: the % may be the effect or the level left
[15] = Protective index, ratio of TD50 for neurotoxicity against ip dosed Kunming mouse assessed as time remained in rod measured at 0.5 hrs by rotarod test to ED50 for anticonvulsant activity in ip dosed Kunming mouse assessed as reduction in Sc3-MP-induced seizure administered 0.5 hrs before Sc3-MP stimulation; type: toxicity, organism-based; conditions: in vivo, read-out: PI
Mus musculus [16] = test: Anticonvulsant activity in Kunming mouse assessed as MES-induced hind limb extension at 50 mg/kg, ip administered 0.5 to 4 hrs before MES stimulation relative to control; type: functional
Mus musculus [17] = test: Anticonvulsant activity in Kunming mouse assessed as reduction in Sc3-MP-induced seizure ip dosed measured at 0.5 hrs before Sc3-MP stimulation; type: functional
Mus musculus [18] = test: Anticonvulsant activity in Kunming mouse assessed as reduction in ScPTZ-induced seizure at 100 mg/kg, ip administered 0.25 to 2 hrs before ScPTZ stimulation relative to control; type: functional; parameters: scale not given: the % may be the effect or the level left
Mus musculus [19] = test: Anticonvulsant activity in Kunming mouse assessed as reduction in ScPTZ-induced clonic seizure at 300 mg/kg, ip administered 0.5 hrs before ScPTZ stimulation relative to control; type: functional; parameters: scale not given: the % may be the effect or the level left
Mus musculus [20] = test: Anticonvulsant activity in Kunming mouse assessed as reduction in ScPTZ-induced tonic seizure rate at 300 mg/kg, ip administered 0.5 hrs before ScPTZ stimulation relative to control; type: functional; parameters: scale not given: the % may be the effect or the level left
Mus musculus [21] = test: Anticonvulsant activity in Kunming mouse assessed as reduction in ScPTZ-induced clonic seizure at 100 mg/kg, ip administered 0.5 hrs before ScPTZ stimulation relative to control; type: functional; parameters: scale not given: the % may be the effect or the level left
[22] = Protective index, ratio of TD50 for neurotoxicity against ip dosed Kunming mouse assessed as time remained in rod measured at 0.5 hrs by rotarod test to ED50 for anticonvulsant activity in ip dosed Kunming mouse assessed as MES-induced hind limb extension administered 0.5 hrs; type: toxicity, organism-based; conditions: in vivo, read-out: PI
Mus musculus [23] = test: Anticonvulsant activity in Kunming mouse assessed as reduction in Sc3-MP-induced clonic seizure rate at 300 mg/kg, ip administered 0.5 hrs before Sc3-MP stimulation relative to control; type: functional; parameters: scale not given: the % may be the effect or the level left
Mus musculus [24] = test: Anticonvulsant activity in Kunming mouse assessed as reduction in ScPTZ-induced tonic seizure rate at 100 mg/kg, ip administered 0.5 hrs before ScPTZ stimulation relative to control; type: functional; parameters: scale not given: the % may be the effect or the level left
Mus musculus [25] = test: Anticonvulsant activity in Kunming mouse assessed as reduction in ScPTZ-induced seizure at 100 mg/kg, ip administered 0.25 and 1 hrs before ScPTZ stimulation relative to control; type: functional; parameters: scale not given: the % may be the effect or the level left

SMILES: COc1cc(/C=C/C(=O)OC/C=C/c2cc(OC)c(OC)cc2OC)cc(OC)c1
- inhibition (Homo sapiens [1]): inactive
- Activity (Mus musculus [2]): 25 - 100%
- Activity [3]: Non-Toxic
- inhibition (Homo sapiens [4]): inactive
- Activity (Mus musculus [5]): Active

SMILES: COc1ccc(/C=C/C(=O)OC/C=C/c2cc(OC)c(OC)cc2OC)c(OC)c1
- inhibition (Homo sapiens [1]): inactive
- Activity (Mus musculus [2]): 25 - 100%
- Activity [3]: Non-Toxic
- inhibition (Homo sapiens [4]): inactive
- Activity (Mus musculus [5]): Active

SMILES: COc1cc(OC)c(OC)cc1/C=C/COC(=O)/C=C/c1cccc(C(F)(F)F)c1
- inhibition (Homo sapiens [1]): < 9%
- Activity (Mus musculus [2]): inactive
- Activity [3]: Non-Toxic
- inhibition (Homo sapiens [4]): < 5%
- Activity (Mus musculus [5]): Active

SMILES: COc1cc(OC)c(OC)cc1CCCOC(=O)/C=C/c1cc(OC)c(OC)c(OC)c1
- inhibition (Homo sapiens [1]): 9%
- Activity (Mus musculus [2]): 25 - 100%
- Activity [3]: Non-Toxic
- Activity (Mus musculus [6]): Active
- inhibition (Homo sapiens [4]): < 5%
- Activity (Mus musculus [5]): Active

SMILES: COc1cc(/C=C/C(=O)O)cc(OC)c1OC [SINAPIC ACID METHYL ETHER]
- Activity [3]: Non-Toxic
- Activity (Mus musculus [5]): Active

SMILES: COc1cc(OC)c(OC)cc1/C=C/COC(=O)/C=C/c1ccc(C(F)(F)F)cc1
- inhibition (Homo sapiens [1]): < 9%
- Activity (Mus musculus [2]): 25 - 100%
- Activity [3]: Non-Toxic
- inhibition (Homo sapiens [4]): < 5%
- Activity (Mus musculus [5]): Active

SMILES: COc1cc(OC)c(OC)cc1/C=C/COC(=O)/C=C/c1c(OC)cccc1OC
- inhibition (Homo sapiens [1]): inactive
- Activity (Mus musculus [2]): 25 - 100%
- Activity [3]: Non-Toxic
- Activity (Mus musculus [6]): Active
- inhibition (Homo sapiens [4]): inactive
- Activity (Mus musculus [5]): Active

SMILES: COc1cc(OC)c(OC)cc1CCCNC(=O)/C=C/c1cc(OC)c(OC)c(OC)c1
- inhibition (Homo sapiens [1]): 9%
- Activity (Mus musculus [2]): 25 - 100%
- Activity [3]: Non-Toxic
- inhibition (Homo sapiens [4]): < 5%
- Activity (Mus musculus [5]): Active

SMILES: COc1cc(OC)c(OC)cc1/C=C/CNC(=O)/C=C/c1cc(OC)c(OC)c(OC)c1
- inhibition (Homo sapiens [1]): 9%
- Activity (Mus musculus [2]): 25 - 100%
- Activity [3]: Non-Toxic
- inhibition (Homo sapiens [4]): < 5%
- Activity (Mus musculus [5]): Active

SMILES: COc1cc(OC)c(OC)cc1/C=C/COC(=O)/C=C/c1ccccc1Br
- inhibition (Homo sapiens [1]): < 9%
- Activity (Mus musculus [2]): inactive
- Activity [3]: Non-Toxic
- inhibition (Homo sapiens [4]): < 5%
- Activity (Mus musculus [5]): Active

SMILES: COc1cc(OC)c(OC)cc1/C=C/COC(=O)/C=C/c1cccc(OC)c1OC
- inhibition (Homo sapiens [1]): inactive
- Activity (Mus musculus [2]): 25 - 100%
- Activity [3]: Non-Toxic
- Activity (Mus musculus [6]): Active
- inhibition (Homo sapiens [4]): inactive
- Activity (Mus musculus [5]): Active

SMILES: COc1ccc(OC)c(/C=C/C(=O)OC/C=C/c2cc(OC)c(OC)cc2OC)c1
- Activity (Mus musculus [2]): 25 - 100%
- Activity [3]: Non-Toxic
- Activity (Mus musculus [6]): Active
- Activity (Mus musculus [5]): Active

SMILES: COc1cc(OC)c(OC)cc1/C=C/COC(=O)/C=C/c1c(OC)c(OC)c(OC)c(OC)c1OC
- inhibition (Homo sapiens [1]): inactive
- Activity (Mus musculus [2]): inactive
- Activity [3]: Non-Toxic
- inhibition (Homo sapiens [4]): inactive
- Activity (Mus musculus [5]): Active

SMILES: COC[C@@H](NC(C)=O)C(=O)NCc1ccccc1 [LACOSAMIDE]
- ED50 (Mus musculus [7]): 15 mg/kg and 0.1 µmol/kg
- TD50 at 0.5 h [8]: 135 µmol/kg
- selectivity ratio at 0.5 h [9]: < 0.1
- ED50 (Mus musculus [10]): > 500 mg/kg and > 2000 µmol/kg
- selectivity ratio at 0.5 h [11]: 2.2
- ED50 (Mus musculus [12]): 37.6 µmol/kg and 9.4 mg/kg

SMILES: COc1cc(OC)c(OC)cc1/C=C/COC(=O)/C=C/c1cccc(F)c1
- inhibition (Homo sapiens [1]): < 9%
- Activity (Mus musculus [2]): 25 - 100%
- Activity [3]: Non-Toxic
- Activity (Mus musculus [6]): Active
- inhibition (Homo sapiens [4]): < 5%
- Activity (Mus musculus [5]): Active

SMILES: COc1cc(OC)c(OC)cc1/C=C/COC(=O)/C=C/c1c(OC)c(OC)cc(OC)c1OC
- ED50 (Mus musculus [7]): 50.8 mg/kg and 107 µmol/kg
- Activity (Mus musculus [13]): 75%
- TD50 at 0.5 h [8]: > 2110 µmol/kg and > 1000 mg/kg
- Activity (Mus musculus [14]): 50%
- selectivity ratio at 0.5 h [15]: 5
- Activity (Mus musculus [16]): 50%
- inhibition (Homo sapiens [1]): Active
- Activity (Mus musculus [2]): 25 - 100%
- ED50 (Mus musculus [17]): > 300 mg/kg and > 632 µmol/kg
- Activity [3]: Non-Toxic
- Activity (Mus musculus [18]): 25%
- selectivity ratio at 0.5 h [9]: 6.7
- Activity (Mus musculus [19]): 100%
- Activity (Mus musculus [20]): 25%
- ED50 (Mus musculus [10]): 149 mg/kg and 314 µmol/kg
- selectivity ratio at 0.5 h [11]: 19.7
- inhibition (Homo sapiens [4]): Active
- Activity (Mus musculus [21]): 100%
- selectivity ratio at 0.5 h [22]: > 17.3
- Activity (Mus musculus [23]): 100%
- Activity (Mus musculus [5]): Active
- Activity (Mus musculus [24]): 25%
- Activity (Mus musculus [25]): 75%
- ED50 (Mus musculus [12]): 122 µmol/kg and 57.9 mg/kg

SMILES: COc1cc(OC)c(OC)cc1/C=C/COC(=O)/C=C/c1cccc(Cl)c1
- inhibition (Homo sapiens [1]): < 9%
- Activity (Mus musculus [2]): 25 - 100%
- Activity [3]: Non-Toxic
- inhibition (Homo sapiens [4]): < 5%
- Activity (Mus musculus [5]): Active

SMILES: COc1cc(OC)c(OC)cc1/C=C/COC(=O)/C=C/c1ccccc1F
- inhibition (Homo sapiens [1]): < 9%
- Activity (Mus musculus [2]): inactive
- Activity [3]: Non-Toxic
- inhibition (Homo sapiens [4]): < 5%
- Activity (Mus musculus [5]): Active
